Laboratory results published in patent US20250188078A1, “SMALL MOLECULE INHIBITORS OF THE CRL4 UBIQUITIN LIGASE” (Cornell University, priority 2022, published 2025).

Columns and labels:
[1] = molecular target: CUL4A-DDB1-BPB interaction (Homo sapiens (Human), UniProt Q16531); assay: AlphaLISA in vitro binding assay, CUL4A and DDB1-BPB binding; details: inhibition of CUL4A and DDB1-BPB binding
Source text: AlphaLISA IC50 (see Table 1, column 4) means the half maximal inhibitory concentration of compound that inhibits CUL4A and DDB1-BPB binding. Our lab established and optimized 384 well-based AlphaLISA in vitro binding assay for testing small molecule inhibitory activity. Small molecule libraries were screened for compounds that disrupt CUL4A-DDB1-BPB interaction using AlphaScreen detection beads (PerkinElmer, #AL112C and #6765300) following the manufacturer's protocol (https://www.perkinelmer.com/PDFs/downloads/GDE-Alphatech.pdf, hereby incorporated by reference in its entirety for all purposes). The 384-well assay plates (Greiner Bio-one, #781075) were read in Synergy Neo2 Hybrid Multi-Mode Reader (BioTek). The IC50 was calculated by Prism 8 XY analysis nonlinear regression (curve fit-Log(inhibitor) vs response).

[2] = system: CUL4A^high MDA-MB-468 breast cancer cells; assay: Cell killing in CUL4-high MDA-MB-468 cells (CellTiter Glo); format: cell-based; details: Homo sapiens, 192 h; MDA-MB-468 cells, 8 days treatment; read-out: EC50 CUL4-High Cells (cell killing)
Protocol: EC50 refers to concentration of compound that induces 50% killing of CUL4A^high MDA-MB-468 cells (see Table 1, column 6). CUL4A^high MDA-MB-468 breast cancer cells were seeded in 96 well plates. After 24 hours, cells were treated with DMSO or compounds. Change fresh medium and compounds. After 8 days treatment, cell viability was examined by using CellTiter Glo kit (Promega #7570) following the manufacturer's guidelines (https://www.promega.com/-/media/files/resources/protocols/technicalbulletins/0/celltiter-glo-luminescent-cell-viability-assay protocol.pdf?rev=0d95c232094b41daa06d0c110d1d916f&sc_lang=en, hereby incorporated by reference in its entirety for all purposes). EC50 concentration was calculated by Prism 8 XY analysis nonlinear regression (curve fit-Log(inhibitor) vs response). Lower EC50 indicates high cell killing potential in CUL4^high MDA-MB-468 cells.
CUL4A^high MDA-MB-468, CUL4^low (T47D), and MCF7 breast cancer cells were seeded in 96 well plates separately. Cells were treated with DMSO, or from 0 to 20 μM compound respectively. Replace with fresh medium and compounds every 48 hours. After 8 days treatment, cell viability was examined by CellTiter Glo kit (Promega #7570). First, transfer the appropriate volume (10 ml for Cat. #G7570) of CellTiter-Glo® Buffer into the amber bottle containing CellTiter-Glo® Substrate to reconstitute the lyophilized enzyme/substrate mixture. This forms the CellTiter-Glo® Reagent. Second, add CellTiter-Glo® Reagent in an equal volume (100 μl per well for 96-well plates) to all wells. Mix contents for 2 minutes on an orbital shaker to induce cell lysis. Incubate at room temperature for 15 minutes to stabilize luminescent signal. Then record luminescence. EC50 concentration was calculated by Prism 8 XY analysis nonlinear regression (curve fit-Log(inhibitor) vs response).

[3] = system: UV-induced CUL4-dependent DDB2 degradation in MEF-F-DDB2 cells; assay: Cell-based assay for inhibition of UV-induced CUL4-dependent DDB2 degradation; parameters: key: (+) means that the normalized DDB2/α-tubulin ratio is higher in the compound treated sample than DMSO treated sample; (−) means that no change happens between compound treated sample with control sample; details: DDB2/α-tubulin by Western blot
Protocol: Cell-based assay for inhibition of UV-induced CUL4-dependent DDB2 degradation by small molecule CUL4 inhibitors (see Table 1, column 5). Briefly, MEF-F-DDB2 cells were seeded in 6-well plates. DMSO or indicated concentrations of compounds were added to MEF-F-DDB2 cells growing in serum-free medium. MEF-F-DDB2 cells were washed once with PBS and subsequently irradiated with a Philips TUV lamp (predominantly 254 nm) at a dose rate of 0.2 W/m^2. DMSO or compounds were added to MEF-F-DDB2 cells, and then cells were harvested. The cells were lysed, and equal amounts of proteins were resolved on SDS-PAGE gel and Flag-DDB2 levels were detected using anti-DDB2 (D4C4) rabbit antibody (Cell signaling, #5416S). α-tubulin (Proteintech, #66031-1-Ig) was used as an internal loading control. (+) means that the normalized DDB2/α-tubulin ratio is higher in the compound treated sample than DMSO treated sample. (−) means that no change happens between compound treated sample with control sample.

Sequence of CUL4A-DDB1-BPB interaction (Q16531 403-706): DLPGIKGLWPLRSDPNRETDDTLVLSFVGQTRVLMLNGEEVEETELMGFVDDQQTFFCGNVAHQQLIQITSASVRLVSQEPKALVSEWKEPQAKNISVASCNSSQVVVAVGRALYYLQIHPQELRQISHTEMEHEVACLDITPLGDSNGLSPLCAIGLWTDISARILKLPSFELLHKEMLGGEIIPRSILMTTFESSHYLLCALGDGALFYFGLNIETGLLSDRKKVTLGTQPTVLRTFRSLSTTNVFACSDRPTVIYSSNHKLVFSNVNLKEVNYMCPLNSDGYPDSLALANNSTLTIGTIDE

SMILES	IC50 [1] [µM]	EC50 [2] [µM]	Degradation Inhibition (inhibition of UV-induced DDB2 degradation) [3]	AlphaLisa IC50 [1]
CN(c1ccc(-c2nc(C(=O)O)cc3c2[nH]c2cc(F)cc(F)c23)cc1)S(=O)(=O)c1ccccc1 [PA1-5, 5,7-difluoro-1-(4-(N-methylphenylsulfonamido)phenyl)-9H-pyrido[3,4-b]indole-3-carboxylic acid]	0.22	10.7		
CN(c1ccc(-c2nc(C(=O)O)cc3c2[nH]c2cc(Cl)ccc23)cc1)S(=O)(=O)c1ccccc1 [PA1-6, 1-[4-[benzenesulfonyl(methyl)amino]phenyl]-7-chloro-9H-pyrido[3,4-b]indole-3-carboxylic acid]	1.13	7.89		
O=C(O)c1cc2c([nH]c3cc(F)ccc32)c(-c2ccc(Oc3ccccc3)cc2)n1 [PA1-11A, 7-fluoro-1-(4-phenoxyphenyl)-9H-pyrido[3,4-b]indole-3-carboxylic acid]		15.7	−	
O=C(O)c1cc2c([nH]c3cc(F)ccc32)c(-c2ccc(OCCc3ccccc3)cc2)n1 [PA1-11B, 7-fluoro-1-(4-phenethoxyphenyl)-9H-pyrido[3,4-b]indole-3-carboxylic acid]		15.2	−	
O=C(O)c1cc2c([nH]c3cc(F)ccc32)c(-c2ccc(OCCCc3ccccc3)cc2)n1 [PA1-11C, 7-fluoro-1-(4-(3-phenylpropoxy)phenyl)-9H-pyrido[3,4-b]indole-3-carboxylic acid]		7.31	−	
O=C(O)c1cc2c([nH]c3cc(F)ccc32)c(-c2ccc(OCC3CCCCC3)cc2)n1 [PA1-11D, 1-(4-(cyclohexylmethoxy)phenyl)-7-fluoro-9H-pyrido[3,4-b]indole-3-carboxylic acid]		9.51	−	
O=C(O)c1cc2c([nH]c3cc(F)ccc32)c(-c2ccc(OCC3CCOCC3)cc2)n1 [PA1-11E, 7-fluoro-1-(4-((tetrahydro-2H-pyran-4-yl)methoxy)phenyl)-9H-pyrido[3,4-b]indole-3-carboxylic acid]		> 20	−	
O=C(O)c1cc2c([nH]c3cc(F)ccc32)c(-c2ccc(OCc3ccncc3)cc2)n1 [PA1-11F, 7-fluoro-1-(4-(pyridin-4-ylmethoxy)phenyl)-9H-pyrido[3,4-b]indole-3-carboxylic acid]		> 20	−	
O=C(O)c1cc2c([nH]c3cc(F)ccc32)c(-c2ccc(OCc3cccnc3)cc2)n1 [PA1-11G, 7-fluoro-1-(4-(pyridin-3-ylmethoxy)phenyl)-9H-pyrido[3,4-b]indole-3-carboxylic acid]		> 20	−	
O=C(O)c1cc2c([nH]c3cc(F)ccc32)c(-c2ccc(OCc3ccsc3)cc2)n1 [PA1-11I, 7-fluoro-1-(4-(thiophen-3-ylmethoxy)phenyl)-9H-pyrido[3,4-b]indole-3-carboxylic acid]		14	−	
O=C(O)c1cc2c([nH]c3cc(F)ccc32)c(-c2ccc(OCc3ccoc3)cc2)n1 [PA1-11J, 7-fluoro-1-(4-(furan-3-ylmethoxy)phenyl)-9H-pyrido[3,4-b]indole-3-carboxylic acid]			−	
O=C(O)c1cc2c([nH]c3cc(F)ccc32)c(-c2ccc(OCc3cscn3)cc2)n1 [PA1-11K, 7-fluoro-1-(4-(thiazol-4-ylmethoxy)phenyl)-9H-pyrido[3,4-b]indole-3-carboxylic acid]		> 20	−	
O=C(O)c1cc2c([nH]c3cc(F)ccc32)c(-c2ccc(OCc3ccncn3)cc2)n1 [PA1-11L, 7-fluoro-1-(4-(pyrimidin-4-ylmethoxy)phenyl)-9H-pyrido[3,4-b]indole-3-carboxylic acid]			−	
O=C(O)c1cc2c([nH]c3cc(F)ccc32)c(-c2ccc(OCn3cncn3)cc2)n1 [PA1-11M, 1-(4-((1H-1,2,4-triazol-1-yl)methoxy)phenyl)-7-fluoro-9H-pyrido[3,4-b]indole-3-carboxylic acid]			−	
Cc1cc(N(C)S(=O)(=O)c2ccccc2)ccc1-c1nc(C(=O)O)cc2c1[nH]c1cc(F)ccc12 [PA1-12A, 7-fluoro-1-(2-methyl-4-(N-methylphenylsulfonamido)phenyl)-9H-pyrido[3,4-b]indole-3-carboxylic acid]	2.4	9.84	−	
COC(=O)c1cc2c([nH]c3cc(F)ccc32)c(-c2ccc(N(C)S(=O)(=O)c3ccc(C#N)cc3)cc2)n1 [PA1-13A-2 ESTER]		> 20	+	Neg
CN(c1ccc(-c2nc(C(=O)O)cc3c2[nH]c2cc(F)ccc23)cc1)S(=O)(=O)c1ccc(C#N)cc1 [PA1-13A-2, 1-(4-((4-cyano-N-methylphenyl)sulfonamido)phenyl)-7-fluoro-9H-pyrido[3,4-b]indole-3-carboxylic acid]	2.51	3.54	−	
CN1CCN(c2ccc(S(=O)(=O)N(C)c3ccc(-c4nc(C(=O)O)cc5c4[nH]c4cc(F)ccc45)cc3)cc2)CC1 [PA1-13A-7, 7-fluoro-1-(4-((N-methyl-4-(4-methylpiperazin-1-yl)phenyl)sulfonamido)phenyl)-9H-pyrido[3,4-b]indole-3-carboxylic acid]	0.38	14.5	−	
Cc1cc(F)cc2[nH]c3c(-c4ccc(N(C)S(=O)(=O)c5ccccc5)cc4)nc(C(=O)O)cc3c12 [PA1-14, 7-fluoro-5-methyl-1-(4-(N-methylphenylsulfonamido)phenyl)-9H-pyrido[3,4-b]indole-3-carboxylic acid]	0.139	7.36		
COC(=O)c1cccc(-c2nc(C(=O)O)cc3c2[nH]c2ccccc23)c1 [PA24, 1-(3-methoxycarbonylphenyl)-9HPage pyrido[3,4-b]indole-3-carboxylic acid]	12		+	
O=C(O)c1cc2c([nH]c3ccccc32)c(-c2cccnc2)n1 [PA25]	2.52 ± 0.54		+	
COc1ccc(-c2ccc(-c3nc(C(=O)O)cc4c3[nH]c3ccccc34)cc2)cc1 [PA60]	17.5 ± 6.39		−	
